Values of other authors in patent US10919913B2, “Spiro[3H-indole-3,2′-pyrrolidin]-2(1H)-one compounds and derivatives as MDM2-p53 inhibitors” (Boehringer Ingelheim International GmbH, priority 2014, dated 2021).

Tested on: p53 wild-type vs. p53 mutant cell lines
Details: in vitro, PPTP of the NCI (Carol et al. 2013)

For CCOc1cc(C(C)(C)C)ccc1C1=N[C@@](C)(c2ccc(Cl)cc2)[C@@](C)(c2ccc(Cl)cc2)N1C(=O)N1CCN(CCCS(C)(=O)=O)CC1 [RG-7112], the “cytotoxic activity, median IC50 p53 wild-type vs. p53 mutant cell lines” value is listed as “lower median IC50 values for p53 wild-type vs. p53 mutant cell lines”.
